# Measured values reported in ChEMBL document CHEMBL1201862, “PubChem BioAssay data set” (2004).
# The source made the active and inactive calls.
# Experiments:
# [1] = target: Solute carrier family 12 member 2/member 5 (Homo sapiens, UniProt P55011+Q9H2X9); assay: KCC2 and NKCC1 inhibition by rubidium flux, cell-based, NKCC1 counter-screen (AID 1734); assay type: functional, HEK293
# [2] = target: Protein-tyrosine kinase 2-beta (Homo sapiens, UniProt Q14289);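 further: potency of inhibitors of PYK2 kinase phosphorylation of poly-GT substrate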
# [3] = system: INS1; assay: beta cell apoptosis inhibitors, cytokine rescue, dose response, luminescence, retest (AID 449756); assay type: functional, cell-based; details: Rattus norvegicus;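 further: cell death triggered by IL-1 beta plus TNF-alpha plus IFN-gamma mixture; protective hits raise ATP signal compared with cytokine alone wells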
# [4] = HeLa 2N DNA content increase, dose response, cell-based, IC50 (AID 1117349); assay type: functional
# [5] = target: Protein Wnt-3a (Mus musculus, UniProt P27467); assay: Wnt3a-driven reporter signaling inhibition, dose response, selectivity assay for Gli-SUFU antagonist project, Wnt-LIGHT cells, luminescence (AID 651570); assay type: functional; details: read-out: IC50_Mean;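 further: Wnt-LIGHT reporter cells stimulated with conditioned medium from Wnt3a-producing cells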
# [6] = HeLa 4N DNA content increase, dose response, cell-based, IC50 (AID 1117351); assay type: functional
# [7] = target: Kallikrein-7 (Homo sapiens, UniProt P49862); assay: Fluorescence Intensity-based biochemical primary high throughput dose response assay to identify activators of kallikrein-7 (K7) zymogen.
# [8] = target: Genome polyprotein (Hepatitis C virus, UniProt Q2Q167); assay: HCV core protein dimerization inhibitors, dose response, biochemical, TR-FRET (AID 2159); set-up: species or system Hepacivirus hominis;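 further: blocks dimerization of HCV core protein measured by TR-FRET between tagged core106 pairs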
# [9] = system: HT-1080; assay: cytotoxicity in HT1080 fibrosarcoma cells, cell-based, fluorescence readout (AID 620); assay type: functional; details: Homo sapiens
# [10] = target: Cytochrome P450 3A4 (Homo sapiens, UniProt P08684);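 further: CYP3A4 tested as one member of a cytochrome P450 panel screen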
# [11] = target: Heat shock protein HSP 90-alpha (Homo sapiens, UniProt P07900); assay: Luminescence-based dose response biochemical high throughput screening assay for inhibitors of the Heat Shock Protein 90 (HSP90). [Related pubchem assays: 1831 (Summary AID.), 1846 (Confirmation screen.), 1789 (Primary screen.)]
# [12] = target: Aryl hydrocarbon receptor (Homo sapiens, UniProt P35869); assay: Luminescence-based cell-based high throughput dose response assay for activators of the Aryl Hydrocarbon Receptor (AHR). [Related pubchem assays: 2796 (Primary screen (AHR activators in singlicate)), 2845 (Confirmation screen (AHR activators in triplicate)), 434939 (Counterscreen (PXR activators in triplicate)), 2804 (Summary (AHR activators))]; assay type: ADME
# [13] = system: H4; assay: Luminescence Cell-Based Dose Response HTS to Identify Activators of 5'UTR Stem-Loop Driven Prion Protein mRNA Translation in H4 Neuroglioblastoma Cells. [Related pubchem assays: 1829 (Project Summary), 1814 (Primary HTS)]; assay type: functional; details: Homo sapiens
# [14] = Luminescence Cell-Based Dose Response HTS to Identify Activators of Luciferase Translation or Activity in H4 […] Cells. [Related pubchem assays: 1829 (Project Summary), 1814 (Primary HTS)]; assay type: functional
# [15] = inhibitors of LMP1-driven NF-kB reporter, dose response, cell-based, EBV LMP1, luciferase, dry powder, set 2 (AID 624361); assay type: functional
# [16] = target: NAD-dependent protein deacylase sirtuin-5, mitochondrial (Homo sapiens, UniProt Q9NXA8); assay: SIRT5 deacylase inhibitors, dose response, biochemical, fluorescence imaging, cherry-pick, set 6 (AID 720597)
# [17] = target: T1, DNA repair protein RAD52 homolog (Homo sapiens, UniProt P43351); assay type: functional, biochemical
# T1 sequence (P43351 whole entry): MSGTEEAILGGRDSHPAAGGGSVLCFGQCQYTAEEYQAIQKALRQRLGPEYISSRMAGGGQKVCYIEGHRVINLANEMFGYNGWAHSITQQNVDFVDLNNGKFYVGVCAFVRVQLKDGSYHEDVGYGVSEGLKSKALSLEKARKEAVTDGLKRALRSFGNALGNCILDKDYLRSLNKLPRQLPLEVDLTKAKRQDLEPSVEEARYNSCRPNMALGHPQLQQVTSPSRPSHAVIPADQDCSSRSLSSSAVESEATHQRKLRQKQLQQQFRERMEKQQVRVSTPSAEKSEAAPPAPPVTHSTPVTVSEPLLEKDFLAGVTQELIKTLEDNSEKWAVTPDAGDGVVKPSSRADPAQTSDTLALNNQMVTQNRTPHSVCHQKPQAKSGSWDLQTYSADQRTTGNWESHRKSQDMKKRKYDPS
# [18] = target: 5-hydroxytryptamine receptor 1A (Homo sapiens, UniProt P08908); assay type: functional
# [19] = target: E3 ubiquitin-protein ligase UHRF1 (Homo sapiens, UniProt Q96T88); assay: Counterscreen for inhibitors of 5-meCpG-binding domain protein 2 (MBD2): TRFRET-based biochemical high throughput dose response assay to identify inhibitors of binding of ubiquitin-like with PHD and ring finger domains 1 (UHRF1) to methylated oligonucleotide.
# [20] = HEK293T cell cytotoxicity, dose response, cytotoxicity control, CellTiter-Glo luminescence, dry powder, set 6 (AID 651949); assay type: functional, cell-based; details: HEK293
# [21] = cytotoxicity in HepG2 cells, dose response, cytotoxicity control, cell-based, plate reader, dry powder (AID 651947); assay type: functional
# [22] = HepG2 cell cytotoxicity, dose response, cytotoxicity control, plate reader, dry powder samples (AID 1159569); assay type: functional, cell-based;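 further: inhibitor potency with signal falling toward the positive control level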
# [23] = P. falciparum Dd2 growth inhibitors, dose response, SYBR Green, dry powder samples (AID 1159566); assay type: functional, cell-based;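 further: potency for growth inhibition with lower SYBR green DNA signal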
# [24] = Plasmodium falciparum Dd2 Sybr green parasite growth Measured in Cell-Based and Microorganism Combination System Using Plate Reader - 2153-01_Inhibitor_Dose_DryPowder_Activity_Set3.; assay type: functional
# [25] = P. falciparum ATP4 D1247Y mutant growth inhibitors, dose response, NITD609-resistant line, SYBR Green, dry powder (AID 1159571); assay type: functional, cell-based;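 further: parasites synchronized at ring stage by sorbitol before testing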
# [26] = P. falciparum Dd2 growth inhibitors, dose response, SYBR Green, cherry-picked samples (AID 1159567); assay type: functional, cell-based
# [27] = P. falciparum 3D7-ScDHODH growth inhibitors, dose response, SYBR Green, dry powder samples (AID 1159570); assay type: functional, cell-based;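 further: parasite growth measured after 72 hours of compound exposure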
# [28] = LGR2 antagonists, dose response, cell-based, HEK293, CRE-luciferase reporter, cherry pick, set 2 (AID 743343); assay type: functional;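 further: transfected cells were stimulated with diluted bursicon conditioned medium after compound addition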
# [29] = cells
# [30] = A549 cell cytotoxicity, dose response, cytotoxicity control, plate reader, cherry-pick, antagonist series (AID 743412); assay type: functional, cell-based
# [31] = target: T2, Oxysterols receptor LXR-beta (Homo sapiens, UniProt P55055); assay type: functional, cell-based;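 further: Cell-based luminescence dose-response assay of agonist activity at LXR, run as a confirmatory counterscreen to a daf-12 agonist screen; HEK293 cells with Gal4-LXR fusion and GAL4-driven luciferase reporter; agonist potency from rising luciferase signal of a Gal4-LXR reporter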
# T2 sequence (P55055 whole entry): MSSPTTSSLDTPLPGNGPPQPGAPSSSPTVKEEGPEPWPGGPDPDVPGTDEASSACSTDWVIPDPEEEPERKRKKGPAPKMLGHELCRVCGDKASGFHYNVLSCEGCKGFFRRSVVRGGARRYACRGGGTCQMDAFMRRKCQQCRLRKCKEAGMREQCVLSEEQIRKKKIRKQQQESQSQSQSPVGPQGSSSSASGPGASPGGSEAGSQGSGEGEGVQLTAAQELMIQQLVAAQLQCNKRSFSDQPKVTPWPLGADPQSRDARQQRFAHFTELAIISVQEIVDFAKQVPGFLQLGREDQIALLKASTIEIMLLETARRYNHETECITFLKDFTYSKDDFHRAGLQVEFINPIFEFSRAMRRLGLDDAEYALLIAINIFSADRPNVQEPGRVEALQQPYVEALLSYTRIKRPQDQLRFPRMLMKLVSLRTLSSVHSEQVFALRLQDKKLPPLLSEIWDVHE
# [32] = Luminescence Cell-Based Dose Response HTS to Identify Inhibitors of 5'UTR Stem-Loop Driven Prion Protein mRNA Translation in H4 Neuroglioblastoma Cells. [Related pubchem assays: 1827 (Project Summary), 1813 (Primary HTS)]; assay type: functional
# [33] = MC4R antagonists, dose response, counter-screen for LGR2 antagonist project, cell-based, plate reader, cherry pick (AID 743444); assay type: functional;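 further: transfected HEK 293 cells stimulated with alpha-MSH peptide; potency of inhibitors of the alpha-MSH evoked signal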
# [34] = HepG2 cell cytotoxicity, dose response, cytotoxicity control, plate reader, cherry-pick, antagonist series (AID 743416); assay type: functional, cell-based
# [35] = target: T3, Histone-lysine N-methyltransferase NSD2 (Homo sapiens, UniProt O96028); assay type: biochemical
# T3 sequence (O96028 whole entry): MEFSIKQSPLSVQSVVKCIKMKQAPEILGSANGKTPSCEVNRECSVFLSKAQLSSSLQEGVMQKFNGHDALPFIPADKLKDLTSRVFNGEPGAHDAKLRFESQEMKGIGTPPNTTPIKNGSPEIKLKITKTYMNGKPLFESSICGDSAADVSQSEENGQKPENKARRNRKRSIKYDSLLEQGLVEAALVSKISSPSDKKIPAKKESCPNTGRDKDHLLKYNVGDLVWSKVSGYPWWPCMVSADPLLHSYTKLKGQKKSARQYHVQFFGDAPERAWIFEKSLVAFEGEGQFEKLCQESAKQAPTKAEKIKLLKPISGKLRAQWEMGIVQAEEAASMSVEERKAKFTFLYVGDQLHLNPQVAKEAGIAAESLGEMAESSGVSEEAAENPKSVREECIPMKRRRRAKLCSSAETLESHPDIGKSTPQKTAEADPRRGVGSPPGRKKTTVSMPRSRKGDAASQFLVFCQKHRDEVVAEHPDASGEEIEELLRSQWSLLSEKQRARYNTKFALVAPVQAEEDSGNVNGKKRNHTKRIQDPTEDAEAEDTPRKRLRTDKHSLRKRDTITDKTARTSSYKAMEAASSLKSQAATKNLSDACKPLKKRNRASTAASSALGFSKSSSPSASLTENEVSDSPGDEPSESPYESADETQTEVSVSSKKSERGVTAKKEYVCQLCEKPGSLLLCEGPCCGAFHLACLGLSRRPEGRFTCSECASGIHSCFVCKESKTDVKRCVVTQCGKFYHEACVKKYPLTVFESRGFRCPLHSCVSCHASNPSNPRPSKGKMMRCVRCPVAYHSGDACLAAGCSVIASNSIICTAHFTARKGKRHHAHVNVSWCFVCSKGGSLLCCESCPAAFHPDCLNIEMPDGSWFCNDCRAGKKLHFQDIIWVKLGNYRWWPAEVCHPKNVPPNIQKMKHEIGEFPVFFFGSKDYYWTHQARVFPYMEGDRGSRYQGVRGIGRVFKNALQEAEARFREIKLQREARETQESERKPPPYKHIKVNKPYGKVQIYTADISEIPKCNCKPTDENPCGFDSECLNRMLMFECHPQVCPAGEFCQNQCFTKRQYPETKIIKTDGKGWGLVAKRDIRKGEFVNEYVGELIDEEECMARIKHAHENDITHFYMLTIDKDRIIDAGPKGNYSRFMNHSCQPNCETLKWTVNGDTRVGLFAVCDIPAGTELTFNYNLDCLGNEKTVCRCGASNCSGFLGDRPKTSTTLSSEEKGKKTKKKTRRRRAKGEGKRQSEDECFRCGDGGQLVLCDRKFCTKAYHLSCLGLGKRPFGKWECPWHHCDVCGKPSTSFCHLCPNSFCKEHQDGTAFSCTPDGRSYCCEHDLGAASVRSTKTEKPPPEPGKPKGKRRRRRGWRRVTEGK
# [36] = system: Vero; assay: West Nile virus antiviral activity, cell-based, CPE readout (AID 1621); assay type: functional; details: Chlorocebus sabaeus
# [37] = target: Photoreceptor-specific nuclear receptor (Homo sapiens, UniProt Q9Y5X4); assay: NR2E3 inverse agonists, dose response, biochemical, TR-FRET (AID 463256); assay type: functional
# [38] = target: Peroxisome proliferator-activated receptor gamma/Nuclear receptor corepressor 2 (Homo sapiens, UniProt P37231+Q9Y618); assay: Counterscreen for NR2E3 inverse agonists: TR-FRET-based biochemical high throughput dose response assay to identify inverse agonists of the interaction between peroxisome proliferator-activated receptor gamma (PPARg) and nuclear receptor co-repressor 2 (NCOR2).; assay type: functional
# Sequence of Peroxisome proliferator-activated receptor gamma/Nuclear receptor corepressor 2 (P37231 whole entry): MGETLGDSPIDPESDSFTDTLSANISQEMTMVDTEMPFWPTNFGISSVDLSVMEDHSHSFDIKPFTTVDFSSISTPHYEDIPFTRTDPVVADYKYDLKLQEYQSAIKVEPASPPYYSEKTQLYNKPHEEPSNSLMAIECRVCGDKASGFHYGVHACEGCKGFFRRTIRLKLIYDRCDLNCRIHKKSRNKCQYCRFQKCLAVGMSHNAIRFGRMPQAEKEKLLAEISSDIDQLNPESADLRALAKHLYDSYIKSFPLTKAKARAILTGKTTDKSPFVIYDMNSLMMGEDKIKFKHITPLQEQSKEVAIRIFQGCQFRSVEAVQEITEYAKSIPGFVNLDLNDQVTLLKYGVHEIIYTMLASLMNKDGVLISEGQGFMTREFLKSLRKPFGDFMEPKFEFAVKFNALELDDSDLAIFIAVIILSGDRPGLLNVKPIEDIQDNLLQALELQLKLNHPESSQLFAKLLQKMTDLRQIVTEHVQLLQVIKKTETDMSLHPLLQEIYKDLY
# Sequence of Peroxisome proliferator-activated receptor gamma/Nuclear receptor corepressor 2 (Q9Y618 whole entry): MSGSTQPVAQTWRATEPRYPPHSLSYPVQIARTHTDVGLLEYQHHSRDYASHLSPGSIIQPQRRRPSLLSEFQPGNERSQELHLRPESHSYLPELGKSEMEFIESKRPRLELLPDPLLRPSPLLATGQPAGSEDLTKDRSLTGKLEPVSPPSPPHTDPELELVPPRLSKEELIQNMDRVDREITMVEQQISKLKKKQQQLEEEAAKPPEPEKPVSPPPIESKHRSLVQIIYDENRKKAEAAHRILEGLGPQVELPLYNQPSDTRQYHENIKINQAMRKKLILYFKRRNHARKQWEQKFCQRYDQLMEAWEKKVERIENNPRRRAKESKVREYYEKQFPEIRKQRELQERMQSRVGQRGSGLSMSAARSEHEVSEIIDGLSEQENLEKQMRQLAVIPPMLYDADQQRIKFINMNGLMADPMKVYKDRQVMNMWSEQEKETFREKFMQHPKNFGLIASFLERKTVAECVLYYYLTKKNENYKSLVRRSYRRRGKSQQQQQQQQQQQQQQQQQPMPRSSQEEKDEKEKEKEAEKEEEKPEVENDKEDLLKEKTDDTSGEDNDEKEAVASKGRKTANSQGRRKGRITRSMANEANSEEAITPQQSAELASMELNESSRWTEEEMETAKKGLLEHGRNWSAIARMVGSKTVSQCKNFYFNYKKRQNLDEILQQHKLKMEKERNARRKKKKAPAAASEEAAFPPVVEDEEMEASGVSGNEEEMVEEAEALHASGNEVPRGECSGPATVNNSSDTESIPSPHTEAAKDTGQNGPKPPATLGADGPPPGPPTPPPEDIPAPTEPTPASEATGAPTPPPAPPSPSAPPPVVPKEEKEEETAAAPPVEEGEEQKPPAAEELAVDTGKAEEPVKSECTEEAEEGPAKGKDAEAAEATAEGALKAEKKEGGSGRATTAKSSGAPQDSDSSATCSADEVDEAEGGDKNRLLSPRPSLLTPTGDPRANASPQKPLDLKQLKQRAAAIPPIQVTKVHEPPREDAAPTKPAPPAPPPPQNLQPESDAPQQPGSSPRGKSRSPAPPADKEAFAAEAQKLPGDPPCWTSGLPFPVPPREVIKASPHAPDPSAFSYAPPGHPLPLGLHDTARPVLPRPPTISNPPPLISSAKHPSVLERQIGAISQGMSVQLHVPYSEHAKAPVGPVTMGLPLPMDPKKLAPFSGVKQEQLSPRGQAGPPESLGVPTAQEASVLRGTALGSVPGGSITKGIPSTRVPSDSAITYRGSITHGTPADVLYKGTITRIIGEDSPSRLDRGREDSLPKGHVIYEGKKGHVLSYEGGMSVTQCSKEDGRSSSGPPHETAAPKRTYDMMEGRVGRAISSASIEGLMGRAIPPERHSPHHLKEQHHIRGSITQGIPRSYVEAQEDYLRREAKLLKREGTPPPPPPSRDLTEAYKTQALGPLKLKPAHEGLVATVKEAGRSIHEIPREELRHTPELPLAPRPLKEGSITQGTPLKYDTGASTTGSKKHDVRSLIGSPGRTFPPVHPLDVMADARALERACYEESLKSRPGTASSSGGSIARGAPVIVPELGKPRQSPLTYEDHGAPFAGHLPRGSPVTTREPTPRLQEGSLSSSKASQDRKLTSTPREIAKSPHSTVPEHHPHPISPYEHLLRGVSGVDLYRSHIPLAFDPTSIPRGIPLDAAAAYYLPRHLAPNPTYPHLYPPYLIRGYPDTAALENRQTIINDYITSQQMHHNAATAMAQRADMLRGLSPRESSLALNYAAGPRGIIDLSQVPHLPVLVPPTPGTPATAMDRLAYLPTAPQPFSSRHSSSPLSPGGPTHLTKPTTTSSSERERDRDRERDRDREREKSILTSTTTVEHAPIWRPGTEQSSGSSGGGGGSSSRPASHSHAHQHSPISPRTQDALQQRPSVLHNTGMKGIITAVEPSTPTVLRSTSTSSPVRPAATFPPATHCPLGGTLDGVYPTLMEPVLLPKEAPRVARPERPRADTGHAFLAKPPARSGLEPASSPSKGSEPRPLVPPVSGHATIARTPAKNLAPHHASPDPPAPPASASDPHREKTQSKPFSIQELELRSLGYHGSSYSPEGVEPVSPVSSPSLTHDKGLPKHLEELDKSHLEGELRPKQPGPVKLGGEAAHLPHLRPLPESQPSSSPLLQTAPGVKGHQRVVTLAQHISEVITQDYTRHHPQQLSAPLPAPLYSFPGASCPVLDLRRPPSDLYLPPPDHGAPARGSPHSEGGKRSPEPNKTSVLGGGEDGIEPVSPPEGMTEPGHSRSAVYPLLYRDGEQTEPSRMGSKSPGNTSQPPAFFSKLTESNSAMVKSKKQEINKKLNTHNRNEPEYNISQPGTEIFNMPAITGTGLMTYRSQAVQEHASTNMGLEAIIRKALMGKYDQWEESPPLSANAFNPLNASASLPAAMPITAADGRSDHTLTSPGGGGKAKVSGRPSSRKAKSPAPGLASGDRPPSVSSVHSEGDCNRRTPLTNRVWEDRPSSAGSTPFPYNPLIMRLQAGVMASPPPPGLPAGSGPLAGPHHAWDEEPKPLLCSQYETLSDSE
# Sequence of Photoreceptor-specific nuclear receptor (Q9Y5X4 whole entry): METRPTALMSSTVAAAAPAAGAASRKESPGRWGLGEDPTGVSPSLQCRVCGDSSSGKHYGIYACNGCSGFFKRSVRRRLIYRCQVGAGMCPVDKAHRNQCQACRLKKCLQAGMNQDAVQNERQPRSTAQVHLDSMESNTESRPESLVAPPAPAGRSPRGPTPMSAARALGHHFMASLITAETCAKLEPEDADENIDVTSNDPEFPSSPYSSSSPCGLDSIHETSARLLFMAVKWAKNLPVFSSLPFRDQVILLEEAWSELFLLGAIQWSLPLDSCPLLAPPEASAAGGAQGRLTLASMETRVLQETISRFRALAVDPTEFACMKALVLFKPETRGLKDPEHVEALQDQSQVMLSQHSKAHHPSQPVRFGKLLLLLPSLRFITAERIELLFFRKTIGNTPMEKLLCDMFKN
# Sequence of Aryl hydrocarbon receptor (P35869 whole entry): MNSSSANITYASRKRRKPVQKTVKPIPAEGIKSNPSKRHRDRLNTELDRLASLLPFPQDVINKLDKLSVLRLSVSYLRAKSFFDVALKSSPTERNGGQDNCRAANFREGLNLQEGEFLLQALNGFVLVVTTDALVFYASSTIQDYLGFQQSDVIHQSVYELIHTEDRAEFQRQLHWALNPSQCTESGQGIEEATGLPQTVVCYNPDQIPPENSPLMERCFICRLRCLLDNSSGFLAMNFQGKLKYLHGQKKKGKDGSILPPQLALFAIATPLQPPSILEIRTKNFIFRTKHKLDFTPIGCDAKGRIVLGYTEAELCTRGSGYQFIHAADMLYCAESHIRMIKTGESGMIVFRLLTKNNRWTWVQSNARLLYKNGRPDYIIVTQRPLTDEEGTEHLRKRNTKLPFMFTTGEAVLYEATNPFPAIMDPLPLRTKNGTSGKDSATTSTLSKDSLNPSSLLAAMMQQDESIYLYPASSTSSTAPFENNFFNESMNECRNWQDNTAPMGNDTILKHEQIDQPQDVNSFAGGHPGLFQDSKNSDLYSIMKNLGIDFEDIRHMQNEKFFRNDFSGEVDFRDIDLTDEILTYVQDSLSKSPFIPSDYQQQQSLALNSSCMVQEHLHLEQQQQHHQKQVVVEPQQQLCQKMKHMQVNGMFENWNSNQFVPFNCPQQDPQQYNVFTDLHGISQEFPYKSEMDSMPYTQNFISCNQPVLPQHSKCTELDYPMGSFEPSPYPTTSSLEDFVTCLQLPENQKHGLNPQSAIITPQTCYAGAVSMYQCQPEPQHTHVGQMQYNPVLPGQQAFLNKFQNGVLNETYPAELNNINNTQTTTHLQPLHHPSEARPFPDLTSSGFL
# Sequence of Protein Wnt-3a (P27467 whole entry): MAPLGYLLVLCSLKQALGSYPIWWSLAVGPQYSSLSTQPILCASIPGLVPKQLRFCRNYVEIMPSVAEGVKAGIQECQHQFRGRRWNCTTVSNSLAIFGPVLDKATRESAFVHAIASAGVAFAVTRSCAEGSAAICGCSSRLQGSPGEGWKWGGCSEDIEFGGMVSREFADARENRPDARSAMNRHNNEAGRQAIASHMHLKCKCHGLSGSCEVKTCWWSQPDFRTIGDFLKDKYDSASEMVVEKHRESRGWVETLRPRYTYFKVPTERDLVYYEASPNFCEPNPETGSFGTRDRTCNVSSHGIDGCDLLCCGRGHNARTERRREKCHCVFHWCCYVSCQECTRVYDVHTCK
# Sequence of NAD-dependent protein deacylase sirtuin-5, mitochondrial (Q9NXA8 whole entry): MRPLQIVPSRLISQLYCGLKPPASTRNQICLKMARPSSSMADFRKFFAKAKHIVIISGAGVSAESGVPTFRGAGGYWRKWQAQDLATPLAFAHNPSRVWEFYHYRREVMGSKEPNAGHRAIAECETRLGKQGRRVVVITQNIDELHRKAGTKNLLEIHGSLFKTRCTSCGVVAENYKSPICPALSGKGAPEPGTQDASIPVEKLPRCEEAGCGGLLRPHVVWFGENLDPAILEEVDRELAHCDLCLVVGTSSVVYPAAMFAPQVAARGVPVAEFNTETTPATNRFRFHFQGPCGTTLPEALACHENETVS
# Sequence of Genome polyprotein (Q2Q167 whole entry): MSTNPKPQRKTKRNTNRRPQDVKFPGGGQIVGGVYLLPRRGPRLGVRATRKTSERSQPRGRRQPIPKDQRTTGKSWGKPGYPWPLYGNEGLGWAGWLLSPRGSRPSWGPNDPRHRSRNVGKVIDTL
compound,measurement,setting,value
O=C(CCS(=O)(=O)Cc1ccccc1)Nc1nc2c(s1)CCCC2,IC50,[1],13.4 µM (active)
NC(=O)c1sc2nc3c(c(-c4ccco4)c2c1N)CCC3,IC50,[2],10.2 µM (not active)
CCCCCCC[N+](CC)(CC)CCCCc1ccc(Cl)cc1,AC50,[3],4.29 µM (active)
same,IC50,[4],> 10 µM (inactive)
same,IC50,[5],2.74 µM (active)
same,IC50,[6],> 10 µM (inactive)
Cc1ccc2nc(NCC(=O)O)nc(-c3ccccc3)c2c1,EC50,[7],14.5 µM (inactive)
COc1ccc(C(=O)NC(=S)Nc2ccc3[nH]c(=O)[nH]c3c2)c(OC)c1,IC50,[8],> 49.8 µM (not active)
COc1ccc2[nH]c(-c3ccc(N)cc3)nc2c1,EC50,[9],> 50 µM (not active)
CCOC(=O)C1CCCN(C(=O)c2sc3nc(-c4ccc(OC)cc4)cn3c2C)C1 (stereo not drawn),AC50,[10],14.1 µM (inconclusive)
same,IC50,[11],5.85 µM (active)
Cc1ccc(/C=N/n2cc(-c3ccccc3)nc2S)s1,EC50,[12],1.44 µM (active)
same,EC50,[13],20 µM (active)
same,EC50,[14],10.4 µM (active)
Cc1noc(C)c1S(=O)(=O)Nc1ccc2c(c1)C(=O)N([C@@H](C)CO)C[C@@H](C)[C@@H](CN(C)Cc1ccc(C(F)(F)F)cc1)OCCCC[C@@H](C)O2,AbsAC35,[15],38.34 µM
same,AC50,[16],> 15 µM (inactive)
Cc1[nH]c2ccccc2c1C1=CCNCC1,AC50,[17],4.56 µM (active)
same,EC50,[18],> 50 µM (not active)
CC(=O)Nc1sc2c(c1-c1nc3ccccc3s1)CCN(C(C)C)CC2,IC50,[19],16.9 µM (inactive)
[O-][S+](Cc1cn(Cc2ccc(F)cc2)nn1)c1nnc(-c2ccc(Cl)cc2)o1 (stereo not drawn),AC50,[20],17.2 µM (active)
same,AC50,[21],15.1 µM (active)
CC(C)NC(=O)N1[C@H](C#N)[C@H](c2ccc(C#CC3CCCC3)cc2)[C@@H]1CO,AC50,[22],36.7 µM (active)
same,AC50,[23],0.684 µM (active)
same,AC50,[24],0.845 µM (active)
same,AC50,[25],0.887 µM (active)
same,AC50,[26],0.803 µM (active)
same,AC50,[27],3.52 µM (active)
Cc1ccc2[nH]c(CSc3nc(C)ccc3C#N)nc2c1,AC50,[28],30.8 µM (active)
same,EC50,[29],> 67.5 µM (inactive)
same,AC50,[30],> 52 µM (inactive)
same,EC50,[31],> 67.5 µM (inactive)
same,EC50,[32],> 120 µM (not active)
same,AC50,[33],33.5 µM (active)
same,AC50,[34],> 52 µM (inactive)
COc1ccc(-c2csc(N(CCCN(C)C)C(=O)c3ccccc3Cl)n2)cc1,AC50,[35],> 20 µM (inactive)
same,IC50,[36],25 µM (active)
COc1ccc(C(=O)NCc2ccc(-c3nc4ccccc4s3)cc2)cc1OC,IC50,[37],5.83 µM (active)
same,IC50,[38],6.27 µM (active)
